# Results: a melting point compilation (Tetko et al.; mined from patent text by program, amines drawn as free bases though some values may be those of a salt)
row,melting point [°C],SMILES
1,197 to 200,O=CNC1Cc2ccccc2NC1=O (stereo unspecified)
2,284 to 285,O=C(O)c1ccc(-c2csc(-c3ccc(Cl)cc3)n2)cc1
3,169 to 170,CS(=O)c1ccc(-n2cnc3ccc(-c4nnc(CCc5cccc(C(F)(F)F)c5)o4)cc32)cc1 (stereo unspecified)
4,141 to 142,COc1ccc(Oc2ccc(F)cc2)cc1C#CC(C)N(O)C(N)=O (stereo unspecified)
5,180 to 182,O=C(c1ccc(-c2ccccc2)cc1)N1Cc2ccccc2Nc2ccccc21
6,> 250,O=C1CCCC2=C1C(c1ccc(Br)s1)C1=C(CCS1)N2 (stereo unspecified)
7,180,CCCCc1ccc(-c2c(C)[nH]c(=O)n2C)cc1
8,> 300,COc1ccccc1NC(=O)Nc1nc(Nc2ccc(CC(=O)O)cc2)nc(Nc2ccccc2-c2ccccc2)n1
9,> 300,COc1c(-c2ccc3cc(NS(C)(=O)=O)ccc3c2)cc(-c2ccc[nH]c2=O)cc1C(C)(C)C
10,92 to 95,CC(C)(C)OC(=O)N1CC=C(c2cnc3c(c2)N(Cc2cc(Cl)ccc2Cl)CCN3)CC1
11,212 to 214,O=C(Nc1ccc2cc(CN3CCCC3)ccc2c1)c1ccc(-c2ccccc2)nc1
12,95 to 97,COC(CC1OCC(Br)([N+](=O)[O-])CO1)OC (stereo unspecified)
13,100 to 102,CNC(=S)NN=C(CCCCl)c1cccnc1
14,141 to 143,CC(C)(C)c1cc(-c2nn(CC#N)c3ncccc23)cc(C(C)(C)C)c1O
15,193 to 194,O=CC(=C(c1ccc(F)cc1)c1ccc(F)cc1)n1nnnc1-c1ccccc1
16,203 to 207,Ic1ccc2c(c1)Cc1cc(I)ccc1-2
17,99 to 102,CCOC(=O)c1cc(Oc2cc(Cl)c(Cl)cc2Cl)ccc1[N+](=O)[O-]
18,210 to 212,CNC(=O)CCCC1CCN(Cc2cnc3c(C)c(NC(=O)c4ccc(-c5ccc(F)cc5)cc4)ccc3c2)CC1
19,72 to 73.5,COC(=O)CCc1ccc(NC(=O)OC(C)(C)C)cc1
20,136 to 137,COC(=O)c1cc(-c2ccc(OC)c(OC)c2)nn(CC2CC2)c1=O
21,133 to 134,CCS(=O)(=O)N[C@H](C(=O)NCCc1ccc(OCc2ccccc2)cc1)C(C)C
22,168 to 170,COc1ccc(N2CCN(c3c(C)c(C)c4c(c3C)CC(C)(CN(Cc3ccccc3)Cc3ccccc3)O4)CC2)cc1 (stereo unspecified)
23,100 to 101,O=C1CCC(c2ccc(-c3ccc(Cl)cc3)o2)O1 (stereo unspecified)
24,229 to 231,NC(=O)c1ccc(-c2ccc3nnn(Cc4ccc5ncccc5c4)c3n2)cc1

row,melting point [°C],SMILES
1,110 to 111,COc1cc(Nc2nccc(-c3ccc(NCCN(C)C)nc3)n2)cc(OC)c1OC
2,118 to 120,COc1cc2cc(OCCCN3CCCCC3)ccc2c2ccc(OCCCN3CCCCC3)cc12
3,163 to 164,Nc1cccc(Cn2c(-c3ccc(-c4cncnc4)cc3)ccc2-c2ccccc2Cl)n1
4,87 to 90,CS(=O)(=O)c1ccc(C(CC2CCCC2)C(=O)Nc2ccccn2)cc1C#N (stereo unspecified)
5,250 to 257,Cc1cc(C#N)c(=O)[nH]c1-c1ccccc1
6,146 to 148,Cc1cccc(-n2nc3c(c2-c2cc4cnccc4s2)CCC3)n1
7,153 to 155,Cc1cc(C)c(C(=O)O)s1
8,70 to 71,CC(=O)c1ccc(OCCc2nc(-c3ccccc3)oc2C)cc1
9,73 to 76,COC(=O)C1C2C=CC(C2)C1NC(=O)OCc1ccccc1 (stereo unspecified)
10,145 to 146,CCOC(=O)c1ccc(OCc2nc(-c3ccco3)oc2C)c(Cl)c1
11,180 to 182,CC1(C)OC(=O)C[C@H]2NC(=O)[C@H]21
12,112,COc1cc(C=CC(=O)c2ccc(OC)c(OC)c2OC)cc(OC)c1
13,163 to 165,CCOC(=O)c1sc(-n2ccc(OC)cc2=O)nc1C
14,90 to 91,CCOC(=O)CN(C)c1ccc(N=C=S)cc1
15,69.8 to 70.5,CCOC(=O)C(Cc1ccc(OCCc2nc(-c3ccccc3)oc2C)cc1)C(=O)OCC
16,50 to 65,O=C(NCCO)NCCCCC1CCSS1 (stereo unspecified)
17,148 to 150,O=C(O)CCC(=NO)c1ccc(-c2ccc(Cl)cc2F)cc1
18,216,Cc1c(C(=O)Cl)c(C)c2cccc(C)c2c1C
19,74 to 78,CC(=C(C#N)C(=O)Nc1ccccc1C(C)C)N(C)C
20,128 to 130,CCC(C)(C)c1ccc(OCCCC(=O)Nc2ccc(OC)c(NC(=O)CC(=O)C3(C)COC(C)(C)OC3)c2)c(C(C)(C)CC)c1
21,103 to 104,O=C(c1cccc(Cl)n1)c1ccc(Cl)cc1Cl
22,212 to 216,CN(C)CCNc1ccc2c3c(nn2C)-c2ccncc2C(=O)c13
23,239 to 241,CC[C@H](C(=O)O)[C@H](N)C(=O)O
24,200,Cc1c(C(F)(C(F)(F)F)C(F)(F)F)c(-c2ccc(S(N)(=O)=O)cc2)c2n1CCC2

row,melting point [°C],SMILES
1,172 to 175,Cc1cccc(NC(=O)CN2CCN(c3ccccc3[N+](=O)[O-])CC2)c1
2,162 to 163,CC(C)(Cc1c(Sc2ccccc2)c2cc(F)ccc2n1Cc1ccc(Cl)cc1)C(=O)O
3,102 to 104,CS(=O)(=O)N1C[C@H](S)C[C@H]1CSCc1ccccc1
4,100 to 102,CCCCCCC(O)CCCCCCCCCCC(=O)NCCCC (stereo unspecified)
5,117 to 119,O[C@@H](CNCCOc1ccc2oc(-c3noc(C(F)(F)F)n3)cc2c1)COc1ccccc1F
6,167 to 169,Nn1c(=O)c2cc(F)c(S(=O)(O)=S)nc2n(C2CC2)c1=O
7,83 to 84,COc1ccc(N=C=O)cc1
8,79 to 81,CS(=O)(=O)c1n[nH]c(NCCCCOc2cccc(CN3CCCCC3)c2)n1
9,195 to 200,O=C(O)c1ccc(CNC=C2C(=O)c3ccccc3OC2c2ccccc2)cc1 (stereo unspecified)
10,166 to 167,CCN(CC)CCC(=O)Nc1cccc2c1C(=O)c1c(NC(=O)CCN(CC)CC)cccc1C2=O
11,142 to 143,ClC1=NC(Cl)(c2ccc(Cl)cc2)NC=N1 (stereo unspecified)
12,> 290,CCCn1c(=O)c2[nH]c(/C=C/c3ccc(Cl)cc3)nc2n(CCC)c1=O
13,173 to 175,Cc1ccnc(NC(=O)c2c(-c3ccc(F)cc3)c(-c3ccc(F)cc3)c(C=O)n2C(C)C)n1
14,193 to 194,CC=CC(=O)Nc1cccc(OC(=O)Nc2ccc(Cl)c(Cl)c2)c1
15,146 to 148,CCCc1c(OCCCOc2ccc(C(=O)O)cc2Cl)ccc(C(C)=O)c1OC(C)=O
16,178 to 181,CCCOc1ccccc1C(=O)Nc1cc(SC)ccc1C(N)=O
17,80,CCOC(=O)C1(Nc2ccc(Oc3ccccc3)cc2)CC1
18,74 to 75,OCC1CCCc2scnc21 (stereo unspecified)
19,105 to 108,CC(=O)N(Cc1cccs1)C1(c2ccc(Cl)cc2)CCC1
20,143 to 145,CCCn1cc(-c2ccc3cc4c(cc3c2)C(C)(C)CCC4(C)C)cc1C(=O)O
21,88,C#CCCCCC12SCC(CCC)(CS1)CS2
22,190 to 194,O=C(Nc1ccc(Cl)cc1)NS(=O)(=O)c1ccc2c(c1)CCO2
23,166 to 168,O=C1NCCC(C(=O)c2ccc(Cc3ccc(F)cc3)o2)=C1O
24,104 to 106,O=C(NCCc1cccc2ccc(OC3C=CCCC3)cc12)C1CCC1 (stereo unspecified)

row,melting point [°C],SMILES
1,193 to 194,C#CCn1c2ccc(Br)cc2c2cc(Br)ccc21
2,224 to 226,Fc1ccc2nc(S)sc2c1
3,141 to 142,O=C(O)c1cn(Cc2ccc(Oc3ccccc3)cc2)nc1OCc1ccc(Oc2ccccc2)cc1
4,138,c1ccc(-c2noc3ccccc23)c(CNCc2ccccc2-c2noc3ccccc23)c1
5,165 to 169,CCCOc1ccc(C(=O)O)cc1C(C)=O
6,> 260,O=C1c2ccccc2C(=O)c2oc(-c3ccccc3F)nc21
7,195 to 198,N#Cc1ccc2nc(C(=O)NCc3cccc(OCCSc4nc[nH]n4)c3)[nH]c(=O)c2c1
8,101 to 102,C(=C\c1nc(COc2ccc(CCCCCn3ccnc3)cc2)co1)/c1ccccc1
9,100 to 103,O=C(NCCCCCO)c1cc([N+](=O)[O-])cc([N+](=O)[O-])c1Cl
10,178 to 180,CCN1c2ncc(C#Cc3cccnc3)cc2C(=O)N(C)c2cccnc21
11,92 to 97,O=C(O)c1ccc(CNC(=O)C2Cc3ccccc3N2S(=O)(=O)c2ccc(-c3ccc(F)cc3OC(F)F)cc2)cc1 (stereo unspecified)
12,142 to 144,Cc1c(CN(C)CCc2ccc(NS(C)(=O)=O)cc2)oc2ccc(NS(C)(=O)=O)cc12
13,178 to 179,CCOC(=O)C(=O)Nc1ccc(Cl)ccc1=O
14,77 to 80,O=C(NC(=O)N(SN1CCOCC1)c1ccc(Oc2ccc(C(F)(F)F)cc2Cl)cc1F)c1c(F)cccc1F
15,146 to 151,O=C(CSCCCOc1ccccc1)NNC(=O)c1ccc(O)cc1
16,211,CN(c1cccc2cc(C3=NCC4(CCN(CC#N)CC4)S3)[nH]c12)S(=O)(=O)c1cccs1
17,200 to 202,Cc1cccc(C)c1NC(=O)N(Cc1ccccc1)CC1(c2ccccc2)CCCC1
18,152 to 155,CCCCCCCCC1C=CC(Cc2ccc(C(=O)O)o2)=C2N=C3CCCCC3=C21 (stereo unspecified)
19,106 to 108,CS(=O)(=O)Nc1ccc(OC[C@@H]2CO2)cc1
20,72,CC(C)c1nn2ccccc2c1C(=O)C1CC1
21,196 to 198,N#CNC(=N)Nc1cc(Cl)cc(Cl)c1
22,150 to 151,Cc1ccc2c(c1)C=C(c1ccc(OCCN3CCCC3)cc1)S2=O (stereo unspecified)
23,164 to 166,CS(=O)(=O)N(C(=O)c1ccccc1)c1cc2occc(=O)c2cc1Oc1ccccc1

row,SMILES,melting point [°C]
1,CCCCCCC(C)(C)c1ccc(C2CC(=O)CC(=O)C2)c(OCc2ccccc2)c1,102 to 103
2,C[C@H](N)Cn1ncc2ccc3oc(C(N)=O)nc3c21,60 to 65
3,CC1(C)CC(=O)NC2CCCCC2N1CCO (stereo unspecified),154 to 156
4,O=c1[nH]c2cc(Cl)ccc2n1C1CCN(Cc2ccnc(-c3ccc(Cl)cc3)c2)CC1,186 to 188
5,CC(c1ccccc1)(c1ccc(O)cc1)c1ccc(O)cc1,185 to 187
6,Cc1ccc(S(=O)(=O)c2ccc3[nH]cc(CCN)c3c2)cc1,137 to 140
